Structures are written as SMILES. Converted amounts (≈) assume the structure as drawn.

Assay [1] deals with MCF7. Description: Cytotoxicity against human MCF7 cells after 72 hrs by SRB-U assay. It is filed as functional, cell-based. The following applies: MCF7, 72 h.
Assay [2] has as its system MCF7. The assay is described as follows: Cytotoxicity against human MCF7 cells assessed as viable cells at 0.1 to 1000 ug/ml after 72 hrs by SRB-U assay. In kind it is functional. A general note: In SRB staining, fixed cells bind dye roughly in proportion to their protein.

Usually IC50 stands for the midpoint of a concentration-inhibition curve. Consider `CCOCCOCCOCCOc1cc(COCCOCCOCCOc2c(Br)c(Br)c(OCCOCCOCCOCc3cc(OCCOCCOCCOCC)c(OCCOCCOCCOCC)c(OCCOCCOCCOCC)c3)c(Br)c2Br)cc(OCCOCCOCCOCC)c1OCCOCCOCCOCC`, for which, in the assay on MCF7 [1], the midpoint of inhibition, the IC50, lay at 25.4 µg/mL (≈ 13.2 µM). The Activity in the assay with MCF7 [2] amounted to 5.1%.

In the case of `CCOCCOCCOCCOc1c(Br)c(Br)c(OCCOCCOCCOCC)c(Br)c1Br`, in the assay with MCF7 [1], the half-maximal inhibitory concentration (IC50) is 13.8 µg/mL (≈ 18.5 µM). In addition, in the assay with MCF7 [2], the Activity came to 11.22%.

Consider `CCOCCOCCOCCOc1cc(COc2c(Br)c(Br)c(OCc3cc(OCCOCCOCCOCC)c(OCCOCCOCCOCC)c(OCCOCCOCCOCC)c3)c(Br)c2Br)cc(OCCOCCOCCOCC)c1OCCOCCOCCOCC`, for which, in the assay with MCF7 [1], half-maximal inhibition (IC50) required 1.07 µg/mL (≈ 0.643 µM). For the same compound, the Activity in the assay on MCF7 [2] turned out to be 1.97%.

Source of the values: ChEMBL document CHEMBL2434929, “Thermoresponsive dendrimers based on oligoethylene glycols: design, synthesis and cytotoxic activity against MCF-7 breast cancer cells” (Eur J Med Chem, 2013).
